# Structures can show the parent of a compound that is named as a salt.
# Experiments:
# [1] = test system: Chloroform-Induced Arrhythmia; assay: Activity on Chloroform-Induced Arrhythmia (ventricular fibrillation); assay type: in vivo, ICR-strain mice; settings: Mus musculus, po, 30 mg/kg orally; ICR mice, 10 per group; chloroform vapor; read-out: Percent VF inhibition
# Experimental: Activity on Chloroform-Induced Arrhythmia: ICR-strain mice having a body weight of 20 to 35 g (10 per group) were used, and the test compound was administered orally in a dose of 30 mg/kg. The mice were put in a 1-liter beaker, and observed for 20 minutes for their symptoms or conditions. Then, they were placed in a vessel saturated with a vapor of chloroform, and the time which elapsed until the animals ceased to breathe was measured. After the stopping of the breathing, the mice were taken out from the vessel and their cardiograms (second induction) were recorded by a memory oscilloscope (VC-10, made by Nippon Kodensha) and a linear corder (WTR331 made by Watanabe Measuring Instrument Co., Ltd.). The occurrence of ventricular fibrillation (VF) was evaluated by the cardiograms. The results are shown in Table 1 by percent VF inhibition.
# [2] = test system: Ouabain-Induced Arrhythmia; assay: Activity on Ouabain-Induced Arrhythmia; assay type: in vivo, Male hybrid adult dogs; settings: Canis lupus familiaris, iv; continuous injection into femoral vein 0.5 mg/kg/min; anaesthetized dogs; n=3 (range); read-out: Dose required complete inhibition
# Experimental: Activity on Ouabain-Induced Arrhythmia: Male hybrid adult dogs weighing 9 to 17 kg were anaesthetized, and fixed in the supine position under artificial respiration. The blood pressures, heart rates and second induced cardiograms (using RA-101 made by San-ei Measuring Instrument Co., Ltd.) of the animals were measured. Ouabain was first intravenously administered in a dose of 40 μg/kg, and 30 minutes later in a dose of 20 μg/kg. Furthermore, until continuous ventricular arrhythmia was obtained, 10 μg/kg of ouabain was cumulatively administered at intervals of 15 minutes. The ventricular automaticity was examined substantially in accordance with the method of Roberts et al. (J. Pharmacol. Exp. Ther. 117, 374-384, 1956). The peripheral end of the right cervical vagus nerve was stimulated with short waves (0.4-1.9 V, 1 millisecond, 20 Hz) using an electrical stimulating device (MSE-3R made by Nippon Kodensha) for 10 seconds. […] After the administration, the vagus nerve was stimulated every minute, and the inhibition of extrasystole was observed. At the same time, the presence or absence of restoration of the cardiogram to a normal rhythm was observed using the inversion of R waves as an index in ventricular arrhythmia. The anti-arrhythmic action was evaluated such that when the normal sinus rhythm was restored and extrasystole was not induced by stimulation of the vagus nerve, the result was rated as complete inhibition.
# [3] = cited from earlier work; for side effects: known/reported side effects (background)
SMILES,inhibition in vivo at 30 mg/kg [1] [%],other results
"CC(N)CC(=O)Nc1cc(OCC(F)(F)F)ccc1-c1cccnc1 (stereo not drawn) [Example 20, 3-Amino-2'-(3-pyridyl)-5'-(2,2,2-trifluoroethoxy)butyranilide monohydrochloride]",100,–
COc1ccc(-c2nc3cccnc3[nH]2)c(NC(=O)CC(C)N)c1 (stereo not drawn) [Example 46],80,–
"CCOc1ccc(-c2cccnc2)c(NC(=O)CC(C)N)c1.Cl.Cl (stereo not drawn) [Example 33, 3-Amino-5'-ethoxy-2'-(3-pyridyl)butyranilide dihydrochloride]",80,ED100 [2]: 2 to 3 mg/kg
"C=CCOc1ccc(-c2cccnc2)c(NC(=O)CC(C)N)c1 (stereo not drawn) [Example 28, 5'-Allyloxy-3-amino-2'-(3-pyridyl)butyranilide]",70,ED100 [2]: 1.5 to 2.8 mg/kg
"COc1ccc(-c2ccccn2)c(NC(=O)CC(C)N)c1 (stereo not drawn) [Example 1, 3-Amino-5'-methoxy-2'-(2-pyridyl)butynanilide]",80,–
"COc1ccc(C(O)c2cccnc2)cc1NC(=O)CC(C)N (stereo not drawn) [Example 56, 3-Amino-5'-[hydroxy-(3-pyridyl)methyl]-2'-methoxybutyranilide hydrochloride]",70,–
"C=CCOc1ccc(-c2ccccn2)cc1NC(=O)CC(C)N (stereo not drawn) [Example 30, 2'-Allyloxy-3-amino-5'-(2-pyridyl)butyranilide dihydrochloride]",70,–
"Cc1cccc(C)c1OCC(C)N (stereo not drawn) [mexiletine, reference compound]",50,side effects [3]: side effects on the digestive system and the meuropsychotic system with a high frequency; activity on the central nervous system ([3]; reported (background)): has activity on the central nervous system; ED100 [2]: 2 to 4.5 mg/kg
CC(C)N(CCC(C(N)=O)(c1ccccc1)c1ccccn1)C(C)C (stereo not drawn) [disopyramide],–,"action on the myocardium ([3]; background): inhibiting action on the myocardium; side effects [3]: thirst, ischurin, constipation, dizziness and vomiting"
"Cc1ccc(-c2ccccn2)c(NC(=O)CC(C)N)c1 (stereo not drawn) [Example 8, 3-Amino-5'-methyl-2'-(2-pyridyl)butyranilide]",90,–
"COc1ccc(-c2ncc[nH]2)c(NC(=O)CC(C)N)c1 (stereo not drawn) [Example 45, 3-Amino-2'-(2-imidazolyl)-5'-methoxybutyranilide]",80,–
"CC(N)CC(=O)Nc1c(OCC(F)(F)F)cccc1-c1cccnc1 (stereo not drawn) [Example 23, 3-Amino-2'-(3-pyridyl)-6'-(2,2,2-trifluoroethoxy)butyranilide]",70,–

# From patent publication US4886822A, “Substituted anilide compounds which are useful in the treatment of arrhythmia” (Kowa Company, Ltd., priority 1987, dated 1989)
